Measured values published in ChEMBL document CHEMBL1122770, “Quantitative structure-activity relationship of insect juvenile hormone mimetic compounds” (J Med Chem, 1984).

Assays:
Tenebrio molitor [1] = experiment: Juvenile hormone mimetic activity in Tenebrio molitor (yellow mealworm); format: functional; design: unit not given here
[2] = Partition coefficient (logP); format: physicochemical; settings: octanol/water
Tenebrio molitor [3] = experiment: Tested for juvenile hormone mimetic activity in Tenebrio molitor (yellow mealworm) excluding from the analysis for activity against Tenebrio molitor; format: functional; design: unit not given here

SMILES | pI50 (Tenebrio molitor [1]) | logP ([2]; read-out: logP) | pI50 (Tenebrio molitor [3]) | logP [2]
CC(/C=C/CC(C)CCCC(C)C)=C\C(=O)c1ccccc1 (configuration not stated) | 3.52 | 7.26 |  | 
CCNC(=O)/C=C(C)/C=C/CC(C)CCCC(C)C (configuration not stated) | 4.76 | 5.24 |  | 
CC(/C=C/CC(C)CCCC(C)C)=C\C(=O)NC(C)C (configuration not stated) | 4.33 | 5.65 |  | 
CCCOC(=O)/C=C(C)/C=C/CC(C)CCCC(C)(C)OC (configuration not stated) | 1.65 | 6.08 |  | 
CCOC(=O)/C=C(C)/C=C/CC(C)CCC1OC1(C)C (configuration not stated) | 2.22 | 4.76 |  | 
CC(/C=C/CC(C)CCCC(C)C)=C\C(=O)NCC(C)C (configuration not stated) | 0.62 | 6.19 |  | 
CC(/C=C/CC(C)CCCC(C)(C)C)=C\C(=O)OC(C)C (configuration not stated) |  | 7.56 |  | 
CCSC(=O)/C=C(C)/C=C/CC(C)CCCC(C)(C)OC (configuration not stated) | 3.49 | 6.78 |  | 
CCOC(=O)/C=C(C)/C=C/CC(C)CCC(O)C(C)C (configuration not stated) |  | 4.65 | <0.45 | 
CCOC(=O)/C=C(C)/C=C/CC(C)CCCC(C)(C)C (configuration not stated) | 2.5 | 7.15 |  | 
COC(C)(C)CCCC(C)C/C=C/C(C)=C/C(=O)OC1CCCC1 (configuration not stated) | 4.32 | 7.01 |  | 
CCNC(=O)/C=C(C)/C=C/CC(C)CCC=C(C)C (configuration not stated) | 4.78 | 4.69 |  | 
COC(=O)/C=C(C)/C=C/CC(C)CCCC(C)C (configuration not stated) | 2.2 | 6.2 |  | 
CCC(=O)/C=C(C)/C=C/CC(C)CCCC(C)(C)O (configuration not stated) |  | 4.18 | 6.04 | 
CCN(CC)C(=O)/C=C(C)/C=C/CC(C)CCCC(C)C (configuration not stated) | 4.63 | 6.02 |  | 
CCCC(=O)/C=C(C)/C=C/CC(C)CCCC(C)C (configuration not stated) | 4.7 | 6.81 |  | 
CC(/C=C/CC(C)CCCC(C)(C)OC(C)C)=C\C(=O)OC(C)C (configuration not stated) | 3.01 | 6.9 |  | 
CCOC(=O)/C=C(C)/C=C/CC(C)CCCC(C)(C)OC (configuration not stated) | 1.92 | 5.54 |  | 
CC(/C=C/CC(C)CCCC(C)C)=C\C(=O)Oc1ccccc1 (configuration not stated) | 1.5 | 7.67 |  | 
CCOC(=O)/C=C(C)/C=C/CC(C)CCCC(C)(C)SC (configuration not stated) | 2.24 | 6.36 |  | 
CC(=O)OC(C)(C)CCCC(C)C/C=C/C(C)=C/C(=O)OC(C)C (configuration not stated) | 3.81 | 5.98 |  | 
CC(C)=CCCC(C)C/C=C/C(C)=C/C(=O)OC(C)C (configuration not stated) | 3.67 | 6.6 |  | 
COC(CCC(C)C/C=C/C(C)=C/C(=O)OC(C)C)C(C)(C)OC (configuration not stated) | 3.88 | 4.75 |  | 
CCOC(C)(C)CCCC(C)C/C=C/C(C)=C/C(=O)OC(C)C (configuration not stated) | 4.51 | 6.49 |  | 

SMILES | pI50 (Tenebrio molitor [1]) | logP ([2]; read-out: logP) | pI50 (Tenebrio molitor [3]) | logP [2]
C=C(C)CCCC(C)C/C=C/C(C)=C/C(=O)OCC (configuration not stated) | 2.49 | 6.19 |  | 
CC(/C=C/CC(C)CCCC(C)C)=C\C(=O)OC(C)C (configuration not stated) | 4.03 | 7.15 |  | 
CCN(CC)C(=O)/C=C(C)/C=C/CC(C)CCC1OC1(C)C (configuration not stated) | 3.85 | 4.04 |  | 
CCN(CC)C(=O)/C=C(C)/C=C/CC(C)CCCC(C)(C)OC (configuration not stated) | 5.51 | 4.82 |  | 
CCOC(=O)/C=C(C)/C=C/CC(C)CCC(OC)C(C)C (configuration not stated) | 2.54 | 5.54 |  | 
CCOC(=O)/C=C(C)/C=C/CC(C)CCCC(C)CC (configuration not stated) | 3.47 | 7.81 |  | 
CCC(=O)/C=C(C)/C=C/CC(C)CCCC(C)C (stereo in doubt; 101) | 4.1 |  |  | 6.68
COC(C)(C)CCCC(C)C/C=C/C(C)=C/C(=O)N(C)C (configuration not stated) | 3.8 | 3.74 |  | 
C=CCSC(=O)/C=C(C)/C=C/CC(C)CCCC(C)(C)OC (configuration not stated) | 2.06 | 6.77 |  | 
CCSC(=O)/C=C(C)/C=C/CC(C)CCCC(C)(C)C (configuration not stated) |  | 8.39 |  | 
CC(/C=C/CC(C)CCCC(C)C)=C\C(=O)N(C)C (configuration not stated) | 3.7 | 4.94 |  | 
CCC(C)OC(=O)/C=C(C)/C=C/CC(C)CCCC(C)C (configuration not stated) | 3.87 | 7.69 |  | 
C#CCOC(=O)/C=C(C)/C=C/CC(C)CCCC(C)C (configuration not stated) [KINOPRENE] |  | 5.86 |  | 
COC(C)(C)C(O)CCC(C)C/C=C/C(C)=C/C(=O)OC(C)C (configuration not stated) | 2.61 | 3.86 |  | 
CC(/C=C/CC(C)CCCC(C)(C)O)=C\C(=O)OC(C)C (configuration not stated) | 4.33 | 5.06 |  | 
COC(C)(C)CCCC(C)C/C=C/C(C)=C/C(=O)O (configuration not stated) |  | 4.79 |  | 
CC(/C=C/CC(C)CCCC(C)(C)OC=O)=C\C(=O)OC(C)C (configuration not stated) | 4.43 | 5.4 |  | 
CCNC(=O)OC(C)(C)CCCC(C)C/C=C/C(C)=C/C(=O)OC(C)C (configuration not stated) | 1.79 | 6.06 |  | 
COC(C)(C)CCCC(C)C/C=C/C(C)=C/C(=O)OC(C)C (configuration not stated) |  | 5.95 |  | 
CCOC(=O)/C=C(C)/C=C/CC(C)CCC=C(C)C (configuration not stated) | 2.38 | 6.19 |  | 
COC(C)(C)CCCC(C)C/C=C/C(C)=C/C(=O)SC(C)C (configuration not stated) | 5.04 | 7.19 |  | 
CCC(C)C(=O)/C=C(C)/C=C/CC(C)CCCC(C)(C)OC (configuration not stated) | 3.54 | 6.02 |  | 
COC(CCC(C)C/C=C/C(C)=C/C(=O)OC(C)C)C(C)C (configuration not stated) | 3.82 | 5.95 |  | 
CCC(=O)/C=C(C)/C=C/CC(C)CCCC(C)C (stereo in doubt; 83) | 4.89 | 6.27 |  | 

SMILES | pI50 (Tenebrio molitor [1]) | logP ([2]; read-out: logP) | pI50 (Tenebrio molitor [3]) | logP [2]
C=CCOC(=O)/C=C(C)/C=C/CC(C)CCCC(C)C (configuration not stated) | 3.51 | 6.73 |  | 
CCOC(=O)/C=C(C)/C=C/CC(C)CCCC(C)(C)Cl (configuration not stated) | 3.5 | 6.44 |  | 
COC(C)(C)CCCC(C)C/C=C/C(C)=C/C(=O)OC1CCC1 (configuration not stated) | 2.79 | 6.44 |  | 
C#CCSC(=O)/C=C(C)/C=C/CC(C)CCCC(C)(C)OC (configuration not stated) | 2.15 | 5.9 |  | 
COC(C)(C)CCCC(C)C/C=C/C(C)=C/C(=O)CC(C)C (configuration not stated) | 3.49 | 6.02 |  | 
CSC(=O)/C=C(C)/C=C/CC(C)CCCC(C)C (configuration not stated) | 3.25 | 7.44 |  | 
CCOC(=O)/C=C(C)/C=C/CC(C)CCC(SCC)C(C)C (configuration not stated) |  | 6.9 | 1.51 | 
CCOC(=O)/C=C(C)/C=C/CC(C)CCC(=O)C(C)C (configuration not stated) |  | 4.3 | <0.45 | 
CSC(C)(C)CCCC(C)C/C=C/C(C)=C/C(=O)OC(C)C (configuration not stated) | 3.77 | 6.77 |  | 
CC(/C=C/CC(C)CCCC(C)C)=C\C(=O)CC(C)C (configuration not stated) | 3.14 | 7.22 |  | 
COC(C)(C)CCCC(C)C/C=C/C(C)=C/C(=O)OCCC(C)C (configuration not stated) | 0.81 | 7.03 |  | 
CC(/C=C/CC(C)CCCC(C)(C)Cl)=C\C(=O)OC(C)C (configuration not stated) | 3.75 | 6.85 |  | 
C#CCCOC(=O)/C=C(C)/C=C/CC(C)CCCC(C)(C)OC (configuration not stated) |  | 5.2 | <1.11 | 
C=CCOC(=O)/C=C(C)/C=C/CC(C)CCCC(C)(C)OC (configuration not stated) | 1.41 | 5.53 |  | 
COC(C)(C)CCCC(C)C/C=C/C(C)=C/C(=O)SC (configuration not stated) | 3.47 | 6.24 |  | 
CCCOC(=O)/C=C(C)/C=C/CC(C)CCCC(C)C (configuration not stated) | 2.71 | 7.28 |  | 
CCNC(=O)/C=C(C)/C=C/CC(C)CCCC(C)(C)OC (configuration not stated) |  | 4.04 | 5.95 | 
CCSC(=O)/C=C(C)/C=C/CC(C)CCCC(C)(C)OC(C)=O (configuration not stated) | 2.83 | 6.81 |  | 
COC(C)(C)CCCC(C)C/C=C/C(C)=C/C(N)=O (configuration not stated) | 0.05 | 3.52 |  | 
CCSC(=O)/C=C(C)/C=C/CC(C)CCCC(C)C (configuration not stated) | 4.05 | 7.98 |  | 
CCSC(=O)/C=C(C)/C=C/CC(C)CCCC(C)(C)O (configuration not stated) | 3.43 | 5.89 |  | 
COC(C)(C)CCCC(C)C/C=C/C(C)=C/C(=O)NC(C)C (configuration not stated) | 4.21 | 4.45 |  | 
CCCC(=O)/C=C(C)/C=C/CC(C)CCCC(C)(C)OC (configuration not stated) | 5.73 | 5.61 |  | 
CCNC(=O)/C=C(C)/C=C/CC(C)CCCC(C)(C)C (configuration not stated) | 4.45 | 5.65 |  | 

SMILES | pI50 (Tenebrio molitor [1]) | logP ([2]; read-out: logP) | pI50 (Tenebrio molitor [3]) | logP [2]
CCOC(=O)/C=C(C)/C=C/CC(C)CCCC(C)(C)OC(C)=O (configuration not stated) | 2.28 | 5.57 |  | 
CCCCOC(=O)/C=C(C)/C=C/CC(C)CCCC(C)(C)OC (configuration not stated) | 0.93 | 6.62 |  | 
C=C(C)CCCC(C)C/C=C/C(C)=C/C(=O)OC(C)C (configuration not stated) | 4.1 | 6.6 |  | 
CCC(C)OC(=O)/C=C(C)/C=C/CC(C)CCCC(C)(C)OC (configuration not stated) | 4.67 | 6.49 |  | 
CC(/C=C/CC(C)CCCC(C)C)=C\C(=O)SC(C)C (configuration not stated) | 4.22 | 8.39 |  | 
CCOC(=O)/C=C(C)/C=C/CC(C)CCC(OC)C(C)(C)OC (configuration not stated) | 1.31 | 4.34 |  | 
COC(C)(C)CCCC(C)C/C=C/C(C)=C/C(=O)NC1CC1 (configuration not stated) | 3.74 |  |  | 4.04
COC(C)(C)CCCC(C)C/C=C/C(C)=C/C(=O)OC(C)(C)C (configuration not stated) | 3.81 | 6.36 |  | 
CCOC(=O)/C=C(C)/C=C/CC(C)CCCC(C)(C)OCC (configuration not stated) | 2.77 | 6.08 |  | 
CCC(=O)/C=C(C)/C=C/CC(C)CCCC(C)(C)OC (configuration not stated) | 5.78 | 5.07 |  | 
C#CCSC(=O)/C=C(C)/C=C/CC(C)CCCC(C)C (configuration not stated) | 3.47 | 5.07 |  | 
COC(=O)/C=C(C)/C=C/CC(C)CCCC(C)(C)OC (configuration not stated) | 0.89 | 5 |  | 
C#CCOC(=O)/C=C(C)/C=C/CC(C)CCCC(C)(C)OC (configuration not stated) | 1.34 | 4.66 |  | 
CCOC(=O)/C=C(C)/C=C/CC(C)CCCC(C)C (configuration not stated) [HYDROPRENE] |  | 6.74 |  | 
CC(/C=C/CC(C)CCCC(C)C)=C\C(=O)OCC(C)C (configuration not stated) | 3.8 | 7.69 |  | 
CC#CCOC(=O)/C=C(C)/C=C/CC(C)CCCC(C)C (configuration not stated) | 2.12 | 6.4 |  | 
C=CC(C)OC(=O)/C=C(C)/C=C/CC(C)CCCC(C)(C)OC (configuration not stated) | 4.39 | 5.94 |  | 
C/C=C/COC(=O)/C=C(C)/C=C/CC(C)CCCC(C)(C)OC (configuration not stated) | 2.25 | 6.07 |  | 
C=CCNC(=O)/C=C(C)/C=C/CC(C)CCCC(C)C (configuration not stated) | 4.33 | 5.23 |  | 
C=CCSC(=O)/C=C(C)/C=C/CC(C)CCCC(C)C (configuration not stated) | 3.26 | 7.97 |  | 
COC(C)(C)CCCC(C)C/C=C/C(C)=C/C(=O)OC1CC1 (configuration not stated) | 2.89 | 5.71 |  | 
CCN(CC)C(=O)/C=C(C)/C=C/CC(C)CCC=C(C)C (configuration not stated) | 1.7 | 5.47 |  | 
